# Measured values taken from ChEMBL document CHEMBL3885861, “Open TG-GATES”.
# Species: Rattus norvegicus
# Experiment: Open TG-GATES - Regimen: Daily Repeat
# Type: toxicity, organism-based, Sprague-Dawley
# Set-up: regimen Daily Repeat, gender Male, age 6 weeks
# Settings: in vivo, po, 300 mg/kg, route gavage, dose level Middle; for APTT / Bas / Eos / Fbg / Hb / Ht / Lym / MCH / MCHC / MCV / Mono / Neu / PT / Plat / RBC / Ret / WBC: tissue Blood; for KIDNEY_L / KIDNEY_R / KIDNEY_TOTAL: tissue Kidney; for LIVER: tissue Liver; for A/G / ALP / ALT / AST / BUN / CRE / Ca / Cl / DBIL / GLC / IP / K / LDH / Na / PL / RALB / TBIL / TC / TG / TP / gamma-GTP: tissue Plasma
compound,measurement,setting,value
Cc1nnc2n1-c1ccc(Cl)cc1C(c1ccccc1Cl)=NC2 [TRIAZOLAM],TERMINAL_BW,"72 h, time 3 day",220.9 g
same,APTT,"72 h, time 3 day",25.7 s
same,Bas,"72 h, time 3 day",0.2%
same,Eos,"72 h, time 3 day",1%
same,Fbg,"72 h, time 3 day",302 mg/dL
same,Hb,"72 h, time 3 day",13.8 g/dL
same,Ht,"72 h, time 3 day",41.2%
same,Lym,"72 h, time 3 day",78.6%
same,MCH,"72 h, time 3 day",21.6 pg
same,MCHC,"72 h, time 3 day",33.4%
same,MCV,"72 h, time 3 day",64.4 fL
same,Mono,"72 h, time 3 day",3.2%
same,Neu,"72 h, time 3 day",16.2%
same,PT,"72 h, time 3 day",12.8 s
same,Plat,"72 h, time 3 day",108.5 x10_4/uL
same,RBC,"72 h, time 3 day",639.2 x10_4/ul
same,Ret,"72 h, time 3 day",6.8%
same,WBC,"72 h, time 3 day",124.2 x10_2/uL
same,KIDNEY_L,"72 h, time 3 day",1 g
same,KIDNEY_R,"72 h, time 3 day",1 g
same,KIDNEY_TOTAL,"72 h, time 3 day",1.9 g
same,LIVER,"72 h, time 3 day",10.9 g
same,A/G,"72 h, time 3 day",0.9
same,ALP,"72 h, time 3 day",1522.4 IU/L
same,ALT,"72 h, time 3 day",53.4 IU/L
same,AST,"72 h, time 3 day",74.4 IU/L
same,BUN,"72 h, time 3 day",14.6 mg/dL
same,CRE,"72 h, time 3 day",0.2 mg/dL
same,Ca,"72 h, time 3 day",11.1 mg/dL
same,Cl,"72 h, time 3 day",104.2 meq/L
same,DBIL,"72 h, time 3 day",0.014 mg/dL
same,GLC,"72 h, time 3 day",176.8 mg/dL
same,IP,"72 h, time 3 day",8.2 mg/dL
same,K,"72 h, time 3 day",3.9 meq/L
same,LDH,"72 h, time 3 day",104.8 IU/L
same,Na,"72 h, time 3 day",141.6 meq/L
same,PL,"72 h, time 3 day",155 mg/dL
same,RALB,"72 h, time 3 day",2.6 g/dL
same,TBIL,"72 h, time 3 day",0.048 mg/dL
same,TC,"72 h, time 3 day",81 mg/dL
same,TG,"72 h, time 3 day",82 mg/dL
same,TP,"72 h, time 3 day",5.6 g/dL
same,gamma-GTP,"72 h, time 3 day",1 IU/L
same,TERMINAL_BW,"[…], time 7 day",262.7 g
same,TERMINAL_BW,"[…], time 14 day",306.6 g
same,TERMINAL_BW,"[…], time 28 day",407.3 g
same,APTT,"[…], time 7 day",19.2 s
same,Bas,"[…], time 7 day",0%
same,Eos,"[…], time 7 day",1%
same,Fbg,"[…], time 7 day",262.6 mg/dL
same,Hb,"[…], time 7 day",13.6 g/dL
same,Ht,"[…], time 7 day",40.5%
same,Lym,"[…], time 7 day",76.6%
same,MCH,"[…], time 7 day",21.4 pg
same,MCHC,"[…], time 7 day",33.6%
same,MCV,"[…], time 7 day",63.6 fL
same,Mono,"[…], time 7 day",3.4%
same,Neu,"[…], time 7 day",18.6%
same,PT,"[…], time 7 day",12.8 s
same,Plat,"[…], time 7 day",124.7 x10_4/uL
same,RBC,"[…], time 7 day",637.8 x10_4/ul
same,Ret,"[…], time 7 day",7%
same,WBC,"[…], time 7 day",119.6 x10_2/uL
same,APTT,"[…], time 14 day",17.8 s
same,Bas,"[…], time 14 day",0.4%
same,Eos,"[…], time 14 day",1%
same,Fbg,"[…], time 14 day",245.8 mg/dL
same,Hb,"[…], time 14 day",14.1 g/dL
same,Ht,"[…], time 14 day",43.1%
same,Lym,"[…], time 14 day",76%
same,MCH,"[…], time 14 day",19.9 pg
same,MCHC,"[…], time 14 day",32.8%
same,MCV,"[…], time 14 day",60.8 fL
same,Mono,"[…], time 14 day",2.2%
same,Neu,"[…], time 14 day",19.4%
same,PT,"[…], time 14 day",13.5 s
same,Plat,"[…], time 14 day",113 x10_4/uL
same,RBC,"[…], time 14 day",710 x10_4/ul
same,Ret,"[…], time 14 day",4.9%
same,WBC,"[…], time 14 day",121.8 x10_2/uL
same,APTT,"[…], time 28 day",18.4 s
same,Bas,"[…], time 28 day",0%
same,Eos,"[…], time 28 day",1.2%
same,Fbg,"[…], time 28 day",262.4 mg/dL
same,Hb,"[…], time 28 day",15.3 g/dL
same,Ht,"[…], time 28 day",45.6%
same,Lym,"[…], time 28 day",82%
same,MCH,"[…], time 28 day",19.3 pg
same,MCHC,"[…], time 28 day",33.6%
same,MCV,"[…], time 28 day",57.5 fL
same,Mono,"[…], time 28 day",1.4%
same,Neu,"[…], time 28 day",14.2%
same,PT,"[…], time 28 day",13.6 s
same,Plat,"[…], time 28 day",106.2 x10_4/uL
same,RBC,"[…], time 28 day",793.4 x10_4/ul
same,Ret,"[…], time 28 day",2.3%
same,WBC,"[…], time 28 day",88.2 x10_2/uL
same,KIDNEY_L,"[…], time 7 day",1.1 g
same,KIDNEY_R,"[…], time 7 day",1.1 g
same,KIDNEY_TOTAL,"[…], time 7 day",2.2 g
same,KIDNEY_L,"[…], time 14 day",1.2 g
same,KIDNEY_R,"[…], time 14 day",1.2 g
same,KIDNEY_TOTAL,"[…], time 14 day",2.4 g
same,KIDNEY_L,"[…], time 28 day",1.4 g
same,KIDNEY_R,"[…], time 28 day",1.4 g
same,KIDNEY_TOTAL,"[…], time 28 day",2.8 g
same,LIVER,"[…], time 7 day",12.6 g
same,LIVER,"[…], time 14 day",13.4 g
same,LIVER,"[…], time 28 day",15.8 g
same,A/G,"[…], time 7 day",0.9
same,ALP,"[…], time 7 day",1686 IU/L
same,ALT,"[…], time 7 day",53 IU/L
same,AST,"[…], time 7 day",75 IU/L
same,BUN,"[…], time 7 day",19 mg/dL
same,CRE,"[…], time 7 day",0.2 mg/dL
same,Ca,"[…], time 7 day",11.1 mg/dL
same,Cl,"[…], time 7 day",104.8 meq/L
same,DBIL,"[…], time 7 day",0.012 mg/dL
same,GLC,"[…], time 7 day",187.2 mg/dL
same,IP,"[…], time 7 day",7.5 mg/dL
same,K,"[…], time 7 day",4.2 meq/L
same,LDH,"[…], time 7 day",84.8 IU/L
same,Na,"[…], time 7 day",141.4 meq/L
same,PL,"[…], time 7 day",162.8 mg/dL
same,RALB,"[…], time 7 day",2.6 g/dL
same,TBIL,"[…], time 7 day",0.038 mg/dL
same,TC,"[…], time 7 day",79 mg/dL
same,TG,"[…], time 7 day",103.4 mg/dL
same,TP,"[…], time 7 day",5.7 g/dL
same,gamma-GTP,"[…], time 7 day",1 IU/L
same,A/G,"[…], time 14 day",0.8
same,ALP,"[…], time 14 day",1485.8 IU/L
same,ALT,"[…], time 14 day",43 IU/L
same,AST,"[…], time 14 day",73 IU/L
same,BUN,"[…], time 14 day",15 mg/dL
same,CRE,"[…], time 14 day",0.2 mg/dL
same,Ca,"[…], time 14 day",10.8 mg/dL
same,Cl,"[…], time 14 day",104.6 meq/L
same,DBIL,"[…], time 14 day",0.008 mg/dL
same,GLC,"[…], time 14 day",182.2 mg/dL
same,IP,"[…], time 14 day",7.2 mg/dL
same,K,"[…], time 14 day",4.1 meq/L
same,LDH,"[…], time 14 day",87.4 IU/L
same,Na,"[…], time 14 day",142.8 meq/L
same,PL,"[…], time 14 day",140 mg/dL
same,RALB,"[…], time 14 day",2.6 g/dL
same,TBIL,"[…], time 14 day",0.036 mg/dL
same,TC,"[…], time 14 day",67.2 mg/dL
same,TG,"[…], time 14 day",105.4 mg/dL
same,TP,"[…], time 14 day",5.7 g/dL
same,gamma-GTP,"[…], time 14 day",1.2 IU/L
same,A/G,"[…], time 28 day",0.8
same,ALP,"[…], time 28 day",1211.8 IU/L
same,ALT,"[…], time 28 day",36.4 IU/L
same,AST,"[…], time 28 day",67.8 IU/L
same,BUN,"[…], time 28 day",16.8 mg/dL
same,CRE,"[…], time 28 day",0.3 mg/dL
same,Ca,"[…], time 28 day",10.7 mg/dL
same,Cl,"[…], time 28 day",105 meq/L
same,DBIL,"[…], time 28 day",0.012 mg/dL
same,GLC,"[…], time 28 day",186.4 mg/dL
same,IP,"[…], time 28 day",6.2 mg/dL
same,K,"[…], time 28 day",4.1 meq/L
same,LDH,"[…], time 28 day",82.2 IU/L
same,Na,"[…], time 28 day",142 meq/L
same,PL,"[…], time 28 day",145.8 mg/dL
same,RALB,"[…], time 28 day",2.7 g/dL
same,TBIL,"[…], time 28 day",0.058 mg/dL
same,TC,"[…], time 28 day",70.6 mg/dL
same,TG,"[…], time 28 day",110.8 mg/dL
same,TP,"[…], time 28 day",6.2 g/dL
same,gamma-GTP,"[…], time 28 day",1 IU/L
